# ChEMBL document CHEMBL6177962, “Design, synthesis and biological evaluation of 2-arylbenzo[b]furan-4-vinylcarbonyl derivatives based on Salvianolic acid C as antioxidant neuroprotective agents for the treatment of ischemic stroke” (Eur J Med Chem, 2025)
# Activity calls are given as the source filed them. The rule behind the calls is not given here.
# Test system: PC-12
# Experiment: Antioxidant activity in t-BHP -induced rat PC12 cells at 2.5 to 20 uM
# Format: functional, cell-based
# Conditions: dose 2.5-20 µM
row,SMILES,Activity
1,COc1ccc(-c2cc3c(/C=C/C(=O)c4cc(OC)c(OC)c(OC)c4)ccc(OC)c3o2)cc1OC,Active
2,COc1ccc(-c2cc3c(/C=C/C(=O)NCCc4ccc(O)c(O)c4)ccc(OC)c3o2)cc1,Active
3,COc1ccc(/C=C/C(=O)NCCc2ccc(O)c(O)c2)c2cc(-c3ccc(C)cc3)oc12,Active

# Test system: Rattus norvegicus
# Experiment: Neuroprotective activity against cerebral ischemia-reperfusion injury in MCAO rat model assessed as reduction in ROS accumulation in cortex at 10 mg/kg, iv treated after 2 hrs ischemia followed by reperfusion measured after 1 week of post-reperfusion by dihydroethidium staining based fluorescence microscopic analysis
# Format: functional, organism-based
# Conditions: time 1.0 weeks
row,SMILES,Activity
1,CC1=NN(c2ccccc2)C(=O)C1,Active

# Test system: PC-12
# Experiment: Neuroprotective activity against t-BHP induced oxidative damage in rat PC12 cells model assessed as reduction in intracellular ROS level at 10 uM incubated for 24 hrs by DCFH-DA probe based analysis
# Format: functional, cell-based
# Conditions: not given
row,SMILES,Activity
1,CC1=NN(c2ccccc2)C(=O)C1,Active

# Test system: PC-12
# Experiment: Cytotoxicity against rat PC12 cells assessed as cell viability at 40 uM incubated for 24 hrs by CCK-8 assay relative to control
# Format: functional
# Conditions: read-out: Activity
row,SMILES,viability at 40 µM
1,COc1cc(OC)cc(-c2cc3c(/C=C/C(=O)c4cc(OC)c(OC)c(OC)c4)ccc(OC)c3o2)c1,109%
2,COc1cc(C(=O)/C=C/c2ccc(OC)c3oc(-c4ccc(C)cc4)cc23)ccc1O,72.8%
3,COc1cc(OC)cc(C(=O)/C=C/c2ccc(OC)c3oc(-c4ccc(C)cc4)cc23)c1,92.2%
4,COC(=O)[C@H](Cc1c[nH]c2ccccc12)NC(=O)/C=C/c1ccc(OC)c2oc(-c3ccc(OC)cc3)cc12,96%
5,COC(=O)[C@@H](NC(=O)/C=C/c1ccc(OC)c2oc(-c3ccc(C)cc3)cc12)c1ccccc1,99.3%
6,COc1ccc(C(=O)/C=C/c2ccc(OC)c3oc(-c4ccc(C)cc4)cc23)c(OC)c1OC,83.9%
7,COC(=O)[C@H](Cc1c[nH]c2ccccc12)NC(=O)/C=C/c1ccc(OC)c2oc(-c3ccc(OC)c(OC)c3)cc12,111%
8,COc1ccc(/C=C/C(=O)c2ccc(N3CCOCC3)cc2)c2cc(-c3ccc(C)cc3)oc12,85%
9,COc1ccc(/C=C/C(=O)c2ccc3c(c2)OCO3)c2cc(-c3ccc(C)cc3)oc12,95%
10,COC(=O)[C@H](Cc1c[nH]c2ccccc12)NC(=O)/C=C/c1ccc(OC)c2oc(-c3ccc(C)cc3)cc12,117%
11,COc1ccc(-c2cc3c(/C=C/C(=O)NCCc4ccc(O)c(O)c4)ccc(OC)c3o2)cc1OC,104%
12,COc1cc(C(=O)/C=C/c2ccc(OC)c3oc(-c4ccc(C)cc4)cc23)cc(OC)c1OC,102%
13,COC(=O)[C@@H]1CCC(=O)N1C(=O)/C=C/c1ccc(OC)c2oc(-c3ccc(C)cc3)cc12,95.3%
14,COc1ccc(/C=C/C(=O)c2ccco2)c2cc(-c3ccc(C)cc3)oc12,107%
15,COc1cc(OC)cc(-c2cc3c(/C=C/C(=O)c4ccc(O)c(OC)c4)ccc(OC)c3o2)c1,94.6%
16,COc1ccc(/C=C/C(=O)NCCc2ccccc2)c2cc(-c3ccc(C)cc3)oc12,99.1%
17,COc1cc(C(=O)/C=C/c2ccc(OC)c3oc(-c4ccc(C)cc4)cc23)ccc1F,102%
18,COc1ccc(-c2cc3c(/C=C/C(=O)c4cc(OC)c(OC)c(OC)c4)ccc(OC)c3o2)cc1OC,105%
19,COc1ccc(-c2cc3c(/C=C/C(=O)NCCc4ccc(O)c(O)c4)ccc(OC)c3o2)cc1,98.2%
20,COc1ccc(/C=C/C(=O)NCCc2ccc(O)c(O)c2)c2cc(-c3ccc(C)cc3)oc12,103%

# Test system: PC-12
# Experiment: Neuroprotective activity against t-BHP induced oxidative damage in rat PC12 cells model assessed as cell viability at 2.5 to 20 uM incubated for 24 hrs by CCK-8 assay
# Format: functional, cell-based
# Conditions: dose 2.5-20 µM
row,SMILES,Activity
1,COc1ccc(-c2cc3c(/C=C/C(=O)c4cc(OC)c(OC)c(OC)c4)ccc(OC)c3o2)cc1OC,Active
2,COc1ccc(-c2cc3c(/C=C/C(=O)NCCc4ccc(O)c(O)c4)ccc(OC)c3o2)cc1,Active
3,COc1ccc(/C=C/C(=O)NCCc2ccc(O)c(O)c2)c2cc(-c3ccc(C)cc3)oc12,Active

# Test system: PC-12
# Experiment: Cytotoxicity against rat PC12 cells assessed as cell viability at 10 uM incubated for 24 hrs by CCK-8 assay relative to control
# Format: functional
# Conditions: read-out: Activity
row,SMILES,viability at 10 µM
1,COc1cc(OC)cc(-c2cc3c(/C=C/C(=O)c4cc(OC)c(OC)c(OC)c4)ccc(OC)c3o2)c1,89.2%
2,COc1cc(C(=O)/C=C/c2ccc(OC)c3oc(-c4ccc(C)cc4)cc23)ccc1O,36.3%
3,COc1cc(OC)cc(C(=O)/C=C/c2ccc(OC)c3oc(-c4ccc(C)cc4)cc23)c1,76.1%
4,COC(=O)[C@H](Cc1c[nH]c2ccccc12)NC(=O)/C=C/c1ccc(OC)c2oc(-c3ccc(OC)cc3)cc12,94.4%
5,COC(=O)[C@@H](NC(=O)/C=C/c1ccc(OC)c2oc(-c3ccc(C)cc3)cc12)c1ccccc1,74.1%
6,COc1ccc(C(=O)/C=C/c2ccc(OC)c3oc(-c4ccc(C)cc4)cc23)c(OC)c1OC,71.9%
7,COC(=O)[C@H](Cc1c[nH]c2ccccc12)NC(=O)/C=C/c1ccc(OC)c2oc(-c3ccc(OC)c(OC)c3)cc12,57.1%
8,COc1ccc(/C=C/C(=O)c2ccc(N3CCOCC3)cc2)c2cc(-c3ccc(C)cc3)oc12,77.9%
9,COc1ccc(/C=C/C(=O)c2ccc3c(c2)OCO3)c2cc(-c3ccc(C)cc3)oc12,58.1%
10,COC(=O)[C@H](Cc1c[nH]c2ccccc12)NC(=O)/C=C/c1ccc(OC)c2oc(-c3ccc(C)cc3)cc12,66.1%
11,COc1ccc(-c2cc3c(/C=C/C(=O)NCCc4ccc(O)c(O)c4)ccc(OC)c3o2)cc1OC,70.7%
12,COc1cc(C(=O)/C=C/c2ccc(OC)c3oc(-c4ccc(C)cc4)cc23)cc(OC)c1OC,51.6%
13,COC(=O)[C@@H]1CCC(=O)N1C(=O)/C=C/c1ccc(OC)c2oc(-c3ccc(C)cc3)cc12,91%
14,COc1ccc(/C=C/C(=O)c2ccco2)c2cc(-c3ccc(C)cc3)oc12,78.5%
15,COc1cc(OC)cc(-c2cc3c(/C=C/C(=O)c4ccc(O)c(OC)c4)ccc(OC)c3o2)c1,45.6%
16,COc1ccc(/C=C/C(=O)NCCc2ccccc2)c2cc(-c3ccc(C)cc3)oc12,93.8%
17,COc1cc(C(=O)/C=C/c2ccc(OC)c3oc(-c4ccc(C)cc4)cc23)ccc1F,83.8%
18,COc1ccc(-c2cc3c(/C=C/C(=O)c4cc(OC)c(OC)c(OC)c4)ccc(OC)c3o2)cc1OC,95.5%
19,COc1ccc(-c2cc3c(/C=C/C(=O)NCCc4ccc(O)c(O)c4)ccc(OC)c3o2)cc1,99.2%
20,COc1ccc(/C=C/C(=O)NCCc2ccc(O)c(O)c2)c2cc(-c3ccc(C)cc3)oc12,99.3%

# Test system: PC-12
# Experiment: Neuroprotective activity against t-BHP induced oxidative damage in rat PC12 cells model assessed as reduction in intracellular ROS level at 10 uM incubated for 24 hrs by DCFH-DA probe based flow cytometry analysis
# Format: functional, cell-based
# Conditions: not given
row,SMILES,Activity
1,CC1=NN(c2ccccc2)C(=O)C1,Active

# Test system: not listed separately
# Experiment: Cytotoxicity against mouse RAW cells assessed as cell viability
# Format: toxicity, cell-based
# Parameters: concentration or dose not given beside the values
# Conditions: read-out: Activity
row,SMILES,viability
1,COc1ccc(/C=C/C(=O)c2ccco2)c2cc(-c3ccc(C)cc3)oc12,< 80%

# Test system: Rattus norvegicus
# Experiment: Neuroprotective activity against cerebral ischemia-reperfusion injury in MCAO rat model assessed as reduction in infarct area at 10 mg/kg, iv treated after 2 hrs ischemia followed by reperfusion measured after 1 week of post-reperfusion by TTC staining based analysis
# Format: functional, organism-based
# Conditions: time 1.0 weeks
row,SMILES,Activity
1,CC1=NN(c2ccccc2)C(=O)C1,Active
